Test results from article PMC7567097, “A nanoluciferase SARS-CoV-2 for rapid neutralization testing and screening of anti-infective drugs for COVID-19” (Nature Communications, 2020).
Several values for one entry are separate records, joined by “and”; a condition that tells them apart may be missing. Identical values can stand only once. Like-named read-outs stand apart in the source and are kept apart here.

What was measured:
SARS-CoV-2-Nluc [1] = experiment: microbe, parasite or virus in culture; type: cell-based
in vitro = details: human; for viability: cell viability (% of DMSO control)
[2] = data from literature; ref [51]-[68]; cited from earlier work
[3] = human exposures in the clinic, approved dosing schedules, ref [51]-[68], cited from earlier work
SARS-CoV-2-Nluc [4] = experiment: microbe, parasite or virus in culture; type: cell-based; details: Severe acute respiratory syndrome coronavirus 2, Vero C1008, 48 h
[5] = Cytotoxicity assay (CCK-8, 72 h) in Vero E6 cells; type: cell-based, African green monkey; details: African green monkey, Vero E6 cells; for viability at 72 h: Vero, two replicates, read-out: cell viability (% of DMSO control)
Vero E6 cells = experiment: Cytotoxicity assay (CCK-8, 72 h) in Vero E6 cells; type: cell-based, African green monkey; details: Vero, two replicates
[6] = Severe acute respiratory syndrome coronavirus 2, 48 h
[7] = Severe acute respiratory syndrome coronavirus 2, read-out: EC50 (µM) Replicate 1
[8] = Severe acute respiratory syndrome coronavirus 2, read-out: EC50 (µM) Replicate 2
[9] = read-out: EC50 (µM) Replicate 1
[10] = read-out: EC50 (µM) Replicate 2

SMILES: O=C(NCc1c(F)cc(F)cc1F)c1cn2c(c(O)c1=O)C(=O)N1[C@H]3CC[C@H](C3)O[C@@H]1C2 [Bictegravir]
- EC50 (SARS-CoV-2-Nluc [1]; [6]): > 10 µM
- CC50 (in vitro; CC50): > 50 µM
- Plasma protein binding [2]: >99%

SMILES: CCC[C@@]1(CCc2ccccc2)CC(O)=C([C@H](CC)c2cccc(NS(=O)(=O)c3ccc(C(F)(F)F)cn3)c2)C(=O)O1 [Tipranavir]
- Selectivity index (SI) = CC50/EC50 (SARS-CoV-2-Nluc [1]): 3.3
- EC50 (SARS-CoV-2-Nluc [1]; [6]): 8.65 ± 0.16 µM
- EC50 (SARS-CoV-2-Nluc [1]; [7]): 8.53 µM
- EC50 (SARS-CoV-2-Nluc [1]; [8]): 8.76 µM
- CC50 (in vitro; CC50): 28.4 ± 0.5 µM
- CC50 (in vitro; CC50 (µM) Replicate 1): 28.8 µM
- CC50 (in vitro; CC50 (µM) Replicate 2): 28.1 µM
- Exposure Cmin [3]: 30.8 µM
- Cmax ([3]; read-out: Exposure Cmax): 130 µM
- Plasma protein binding [2]: 99.9%

SMILES: CC(C)[C@@]1(C(=O)N[C@H]2CC(=O)O[C@]2(O)CF)CC(c2nccc3ccccc23)=NO1 [Nivocasan (GS-9450), Nivocasan]
- EC50 (SARS-CoV-2-Nluc [1]; read-out: EC50): > 10 µM
- EC50 (SARS-CoV-2-Nluc [1]; [9]): > 10 µM
- EC50 (SARS-CoV-2-Nluc [1]; [10]): > 10 µM
- CC50 (A549-hACE2 cells): > 50 µM

SMILES: C=CC(=O)N1CCC[C@@H](n2nc(-c3ccc(Oc4ccccc4)cc3)c3c(N)ncnc32)C1 [Ibrutinibj]
- EC50 (SARS-CoV-2-Nluc [1]; [9]): > 10 µM
- EC50 (SARS-CoV-2-Nluc [1]; [10]): > 10 µM
- CC50 (A549-hACE2 cells): > 50 µM

SMILES: N#C[C@@]1(c2ccc3c(N)ncnn23)O[C@H](CO)[C@@H](O)[C@H]1O [GS-441524]
- EC50 (SARS-CoV-2-Nluc [1]; [6]): 0.869 ± 0.289 µM
- EC50 (SARS-CoV-2-Nluc [1]; [7]): 1.07 µM
- EC50 (SARS-CoV-2-Nluc [1]; [8]): 0.665 µM
- CC50 (in vitro; CC50): > 50 µM
- CC50 (in vitro; CC50 (µM) Replicate 1): > 50 µM
- CC50 (in vitro; CC50 (µM) Replicate 2): > 50 µM

SMILES: CCN(CC)CCCC(C)Nc1ccnc2cc(Cl)ccc12 (centres unmarked) [Chloroquine]
- EC50 (SARS-CoV-2-Nluc [1]; [6]): 1.32 ± 0.36 µM
- EC50 (SARS-CoV-2-Nluc [1]; [7]): 1.06 µM
- EC50 (SARS-CoV-2-Nluc [1]; [8]): 1.57 µM
- EC50 (SARS-CoV-2-Nluc [4]): 3.52 µM
- viability at 72 h ([5]; Concentration 0.00152416): 112%
- viability at 72 h ([5]; Concentration 0.00457247): 113%
- viability at 72 h ([5]; Concentration 0.0137174): 100%
- viability at 72 h ([5]; Concentration 0.123457): 83.5%
- viability at 72 h ([5]; Concentration 0.37037): 80.1%
- viability at 72 h ([5]; Concentration 1.11111): 81.4%
- viability at 72 h ([5]; Concentration 3.33333): 75.3%
- viability at 72 h ([5]; Concentration 10): 76.5%
- CC50 at 72 h ([5]; 3-day cytotoxicity): > 50 µM
- cell viability (% of DMSO control) (Vero E6 cells; Concentration 0.00152416): 109.35%
- cell viability (% of DMSO control) (Vero E6 cells; Concentration 0.00457247): 115.44%
- cell viability (% of DMSO control) (Vero E6 cells; Concentration 0.0137174): 94.62%
- cell viability (% of DMSO control) (Vero E6 cells; Concentration 0.0411523): 86.94% and 111.97%
- cell viability (% of DMSO control) (Vero E6 cells; Concentration 0.123457): 83.36%
- cell viability (% of DMSO control) (Vero E6 cells; Concentration 0.37037): 78.26%
- cell viability (% of DMSO control) (Vero E6 cells; Concentration 1.11111): 94.9%
- cell viability (% of DMSO control) (Vero E6 cells; Concentration 3.33333): 72.03%
- cell viability (% of DMSO control) (Vero E6 cells; Concentration 10): 73.87%
- cell viability (% of DMSO control) (A549-hACE2 cells; Concentration 0.00152416): 94.76%
- cell viability (% of DMSO control) (A549-hACE2 cells; Concentration 0.00457247): 100.03%
- cell viability (% of DMSO control) (A549-hACE2 cells; Concentration 0.0137174): 97.21%
- cell viability (% of DMSO control) (A549-hACE2 cells; Concentration 0.0411523): 100.16%
- cell viability (% of DMSO control) (A549-hACE2 cells; Concentration 0.123457): 98.53%
- cell viability (% of DMSO control) (A549-hACE2 cells; Concentration 0.37037): 99.78%
- cell viability (% of DMSO control) (A549-hACE2 cells; Concentration 1.11111): 100.72%
- cell viability (% of DMSO control) (A549-hACE2 cells; Concentration 3.33333): 101.54%
- cell viability (% of DMSO control) (A549-hACE2 cells; Concentration 10): 101.98%
- CC50 (in vitro; CC50): > 50 µM
- CC50 (in vitro; CC50 (µM) Replicate 1): > 50 µM
- CC50 (in vitro; CC50 (µM) Replicate 2): > 50 µM
- viability (in vitro; Concentration 0.00152416): 105%
- viability (in vitro; Concentration 0.00457247): 106%
- viability (in vitro; Concentration 0.0137174): 103%
- viability (in vitro; Concentration 0.0411523): 104%
- viability (in vitro; Concentration 0.123457): 105%
- viability (in vitro; Concentration 0.37037): 104%
- viability (in vitro; Concentration 1.11111): 104%
- viability (in vitro; Concentration 3.33333): 104%
- viability (in vitro; Concentration 10): 108%

SMILES: COC(=O)N[C@H](C(=O)N[C@@H](Cc1ccccc1)[C@@H](O)CN(Cc1ccc(-c2ccccn2)cc1)NC(=O)[C@@H](NC(=O)OC)C(C)(C)C)C(C)(C)C [Atazanavir]
- EC50 (SARS-CoV-2-Nluc [1]; [6]): > 10 µM
- EC50 (SARS-CoV-2-Nluc [1]; [7]): > 10 µM
- EC50 (SARS-CoV-2-Nluc [1]; [8]): > 10 µM
- CC50 (in vitro; CC50): > 50 µM
- CC50 (in vitro; CC50 (µM) Replicate 1): > 50 µM
- CC50 (in vitro; CC50 (µM) Replicate 2): > 50 µM

SMILES: O=C(NCc1c(F)cc(F)cc1F)c1cn2c(c(O)c1=O)C(=O)N1[C@H]3CC[C@H](C3)O[C@@H]1C2 [Bictegravirt]
- EC50 (SARS-CoV-2-Nluc [1]; [9]): > 10 µM
- EC50 (SARS-CoV-2-Nluc [1]; [10]): > 10 µM
- CC50 (A549-hACE2 cells): > 50 µM

SMILES: Cc1cccc(C)c1OCC(=O)N[C@@H](Cc1ccccc1)[C@@H](O)C[C@H](Cc1ccccc1)NC(=O)[C@H](C(C)C)N1CCCNC1=O [Lopinavir]
- EC50 (SARS-CoV-2-Nluc [1]; [6]): 9 ± 0.42 µM
- EC50 (SARS-CoV-2-Nluc [1]; [7]): 9.3 µM
- EC50 (SARS-CoV-2-Nluc [1]; [8]): 8.7 µM
- CC50 (in vitro; CC50): 31.5 ± 2.5 µM
- CC50 (in vitro; CC50 (µM) Replicate 1): 29.8 µM
- CC50 (in vitro; CC50 (µM) Replicate 2): 33.3 µM
- Plasma protein binding [2]: 98–99%

SMILES: O=C(Nc1ccc([N+](=O)[O-])cc1Cl)c1cc(Cl)ccc1O [Niclosamide]
- Selectivity index (SI) = CC50/EC50 (SARS-CoV-2-Nluc [1]): 1.8
- EC50 (SARS-CoV-2-Nluc [1]; [6]): 0.715 ± 0.332 µM
- EC50 (SARS-CoV-2-Nluc [1]; [7]): 0.95 µM
- EC50 (SARS-CoV-2-Nluc [1]; [8]): 0.48 µM
- CC50 (in vitro; CC50): 1.28 ± 0.23 µM
- CC50 (in vitro; CC50 (µM) Replicate 1): 1.44 µM
- CC50 (in vitro; CC50 (µM) Replicate 2): 1.12 µM
